The values that follow are results of earlier work, collected in patent US20050079136A1, “Aerosol formulations of delta tetrahydrocannabinol” (priority 2001, published 2005).

The test system of this data set is children with cancer.

Take `CCCCCc1cc(O)c2c(c1)OC(C)(C)[C@@H]1CC=C(C)C[C@@H]21` [Δ^8 THC, Δ^8 Tetrahydrocannabinol]: the incidence of nausea result is given as “greatly reduced” and the side effects entry is given as “no significant side effects”.
